Test results as given in patent publication US9725449B2, “Tricyclic compounds as anticancer agents” (BRISTOL-MYERS SQUIBB COMPANY, priority 2015, dated 2017).

Target: BRD4 (Homo sapiens, UniProt O60885)
Assay: Time resolved fluorescence resonance energy transfer (TR-FRET) binding assay, bromodomain BRD4
Settings: one of the FRET assays described; read-out: FRET BRD4 IC50

Compound | IC50
COc1ccc2c3ncc(-c4c(C)nnn4C)cc3n(C(c3ccccc3F)C3CCOCC3)c2n1 (racemic) [Example 28, 5-(Dimethyl-1H-1,2,3-triazol-5-yl)-8-[(2-fluorophenyl)(oxan-4-yl)methyl]-11-methoxy-3,8,10-triazatricyclo[7.4.0.0^2,^7]trideca-1(13),2(7),3,5,9,11-hexaene] | < 10 nM
Cc1nnn(C)c1-c1cnc2c3cncc(S(C)(=O)=O)c3n(C(c3ccccc3)C3CCC(F)(F)CC3)c2c1 (stereo not shown) [Example 289, 8-[(4,4-Difluorocyclohexyl)(phenyl)methyl]-5-(dimethyl-1H-1,2,3-triazol-5-yl)-10-methanesulfonyl-3,8,12-triazatricyclo[7.4.0.0^2,^7]trideca-1(13),2(7),3,5,9,11-hexaene] | < 1500 nM
Cc1nnn(C)c1-c1cnc2c3ccc(-c4cnn(C5CC5)c4)nc3n([C@H](c3ccccc3)C3CCOCC3)c2c1 [Example 150, 11-(1-Cyclopropyl-1H-pyrazol-4-yl)-5-(dimethyl-1H-1,2,3-triazol-5-yl)-8-[(S)-oxan-4-yl(phenyl)methyl]-3,8,10-triazatricyclo[7.4.0.0^2,^7]trideca-1(13),2(7),3,5,9,11-hexaene] | < 1 nM
Cc1nnn(C)c1-c1cnc2c3ccc(S(=O)(=O)N4CCCC4)nc3n([C@H](c3ccccc3)C3CCOCC3)c2c1 [Example 196, 5-(Dimethyl-1H-1,2,3-triazol-5-yl)-8-[(S)-oxan-4-yl(phenyl)methyl]-11-(pyrrolidine-1-sulfonyl)-3,8,10-triazatricyclo[7.4.0.0^2,^7]trideca-1(9),2(7),3,5,10,12-hexaene] | < 10 nM
[2H]C([2H])([2H])c1onc(C)c1-c1cnc2c3cnc(C(C)(C)O)cc3n([C@H](c3ccc(F)cc3)C3CCOCC3)c2c1 [Example 225, 2-{8-[(S)-(4-Fluorophenyl)(oxan-4-yl)methyl]-5-[5-(^2H3)methyl-3-methyl-1,2-oxazol-4-yl]-3,8,12-triazatricyclo[7.4.0.0^2,^7]trideca-1(13),2(7),3,5,9,11-hexaen-11-yl}propan-2-ol] | < 1 nM
Cc1noc(C)c1-c1cnc2c3c(OCC4CC4)ncc(S(C)(=O)=O)c3n([C@H](c3ccccc3)C3CCOCC3)c2c1 [Example 103, 13-(Cyclopropylmethoxy)-5-(dimethyl-1,2-oxazol-4-yl)-10-methanesulfonyl-8-[(S)-oxan-4-yl(phenyl)methyl]-3,8,12-triazatricyclo[7.4.0.0^2,^7]trideca-1(13),2(7),3,5,9,11-hexaene] | < 10 nM
Cc1nnn(C)c1-c1cnc2c3c(S(C)(=O)=O)ncc(Cl)c3n([C@H](c3ccccc3)C3CCOCC3)c2c1 [Example 42, 10-Chloro-5-(dimethyl-1H-1,2,3-triazol-5-yl)-13-methanesulfonyl-8-[(S)-oxan-4-yl(phenyl)methyl]-3,8,12-triazatricyclo[7.4.0.0^2,^7]trideca-1(13),2(7),3,5,9,11-hexaene] | < 10 nM
Cc1nnn(C)c1-c1cnc2c3cc(C(C)(C)O)cnc3n([C@H](c3ccccc3)C3CCOCC3)c2c1 [Example 350, 2-[5-(Dimethyl-1H-1,2,3-triazol-5-yl)-8-[(S)-oxan-4-yl(phenyl)methyl]-3,8,10-triazatricyclo[7.4.0.0^2,^7]trideca-1(13),2(7),3,5,9,11-hexaen-12-yl]propan-2-ol] | < 10 nM
Cc1nnn(C)c1-c1cnc2c3cnc(-c4c(C)nnn4C)nc3n([C@H](c3ccccc3)C3CCOCC3)c2c1 [Example 155, 5,11-Bis(dimethyl-1H-1,2,3-triazol-5-yl)-8-[(S)-oxan-4-yl(phenyl)methyl]-3,8,10,12-tetraazatricyclo[7.4.0.0^2,^7]trideca-1(9),2(7),3,5,10,12-hexaene] | < 10 nM
[2H]C([2H])([2H])c1nnn(C)c1-c1cnc2c3ccc(-c4c(C([2H])([2H])[2H])nnn4C)nc3n([C@@H](c3ccccc3)C3CCOCC3)c2c1 [Example 165, 5,11-Bis[4-(^2H3)methyl-1-methyl-1H-1,2,3-triazol-5-yl]-8-[(R)-oxan-4-yl(phenyl)methyl]-3,8,10-triazatricyclo[7.4.0.0^2,^7]trideca-1(9),2(7),3,5,10,12-hexaene] | < 10 nM
[2H]C([2H])([2H])c1nnn(C)c1-c1cnc2c3cc(Cl)cnc3n([C@H](c3ccccc3)C3CCOCC3)c2c1 [Example 347, 12-Chloro-5-[4-(^2H3)methyl-1-methyl-1H-1,2,3-triazol-5-yl]-8-[(S)-oxan-4-yl(phenyl)methyl]-3,8,10-triazatricyclo[7.4.0.0^2,^7]trideca-1(13),2(7),3,5,9,11-hexaene] | < 1500 nM
Cc1nnn(C)c1-c1cnc2c3cnccc3n([C@H](c3ccccc3)C3CCOCC3)c2c1 [Example 35, 5-(Dimethyl-1H-1,2,3-triazol-5-yl)-8-[(S)-oxan-4-yl(phenyl)methyl]-3,8,12-triazatricyclo[7.4.0.0^2,^7]trideca-1(13),2(7),3,5,9,11-hexaene] | < 10 nM
[2H]C([2H])([2H])c1nnn(C)c1-c1cnc2c3ccc(NCCc4nnn[nH]4)nc3n([C@H](c3ccccc3)C3CCOCC3)c2c1 [Example 295, 5-[4-(^2H3)Methyl-1-methyl-1H-1,2,3-triazol-5-yl]-8-[(S)-oxan-4-yl(phenyl)methyl]-N-[2-(1H-1,2,3,4-tetrazol-5-yl)ethyl]-3,8,10-triazatricyclo[7.4.0.0^2,^7]trideca-1(9),2(7),3,5,10,12-hexaen-11-amine] | < 1 nM
COc1nnn(C)c1-c1cnc2c3ccc(-c4c(OC)nnn4C)nc3n([C@H](c3ccccc3)C3CCOCC3)c2c1 [Example 166, 5,11-Bis(4-methoxy-1-methyl-1H-1,2,3-triazol-5-yl)-8-[(S)-oxan-4-yl(phenyl)methyl]-3,8,10-triazatricyclo[7.4.0.0^2,^7]trideca-1(9),2(7),3,5,10,12-hexaene] | < 10 nM
[2H]C([2H])([2H])c1nnn(C)c1-c1cnc2c3ccc(Cl)nc3n([C@H](c3ccccc3F)C3CCOCC3)c2c1 [Example 233, 11-Chloro-8-[(S)-(2-fluorophenyl)(oxan-4-yl)methyl]-5-[4-(^2H3)methyl-1-methyl-1H-1,2,3-triazol-5-yl]-3,8,10-triazatricyclo[7.4.0.0^2,^7]trideca-1(13),2(7),3,5,9,11-hexaene] | < 10 nM
Cc1nnn(C)c1-c1cnc2c3cnc(N4CCN(C5CC5)CC4)nc3n([C@H](c3ccccc3)C3CCOCC3)c2c1 [Example 157, 11-(4-Cyclopropylpiperazin-1-yl)-5-(dimethyl-1H-1,2,3-triazol-5-yl)-8-[(S)-oxan-4-yl(phenyl)methyl]-3,8,10,12-tetraazatricyclo[7.4.0.0^2,^7]trideca-1(9),2(7),3,5,10,12-hexaene] | < 10 nM
[2H]C([2H])([2H])c1nnn(C)c1-c1cnc2c3ccc(C(C)(O)C4CC4)nc3n([C@H](c3ccccc3F)C3CCOCC3)c2c1 (stereo partly drawn) [Example 242, 1-Cyclopropyl-1-{8-[(S)-(2-fluorophenyl)(oxan-4-yl)methyl]-5-[4-(^2H3)methyl-1-methyl-1H-1,2,3-triazol-5-yl]-3,8,10-triazatricyclo[7.4.0.0^2,^7]trideca-1(13),2(7),3,5,9,11-hexaen-11-yl}ethan-1-ol] | < 10 nM
Cc1noc(C)c1-c1cnc2c3cc(C(C)(C)O)cnc3n([C@H](c3ccccc3)C3CCOCC3)c2c1 [Example 351, 2-[5-(Dimethyl-1,2-oxazol-4-yl)-8-[(S)-oxan-4-yl(phenyl)methyl]-3,8,10-triazatricyclo[7.4.0.0^2,^7]trideca-1(13),2(7),3,5,9,11-hexaen-12-yl]propan-2-ol] | < 1500 nM
COc1ncc(S(C)(=O)=O)c2c1c1ncc(-c3c(C)nnn3C)cc1n2[C@H](c1ccccc1F)C1CCOCC1 [Example 50, 5-(Dimethyl-1H-1,2,3-triazol-5-yl)-8-[(S)-(2-fluorophenyl)(oxan-4-yl)methyl]-10-methanesulfonyl-13-methoxy-3,8,12-triazatricyclo[7.4.0.0^2,^7]trideca-1(13),2(7),3,5,9,11-hexaene] | < 1 nM
Cc1nnn(C)c1-c1cnc2c3ccnc(OCCN(C)C)c3n([C@H](c3ccccc3)C3CCOCC3)c2c1 [Example 10, (2-{[5-(Dimethyl-1H-1,2,3-triazol-5-yl)-8-[(S)-oxan-4-yl(phenyl)methyl]-3,8,11-triazatricyclo[7.4.0.0^2,^7]trideca-1(13),2(7),3,5,9,11-hexaen-10-yl]oxy}ethyl)dimethylamine] | < 10 nM
Cc1nnn(C)c1-c1cnc2c3ccnc(NCCO)c3n([C@H](c3ccccc3)C3CCOCC3)c2c1 [Example 11, 2-{[5-(Dimethyl-1H-1,2,3-triazol-5-yl)-8-[(S)-oxan-4-yl(phenyl)methyl]-3,8,11-triazatricyclo[7.4.0.0^2,^7]trideca-1(13),2(7),3,5,9,11-hexaen-10-yl]amino}ethan-1-ol] | < 10 nM
[2H]C([2H])([2H])c1nnn(C)c1-c1cnc2c3ccc(N(C)C)nc3n([C@H](c3ccccc3F)C3CCOCC3)c2c1 [Example 238, 8-[(S)-(2-Fluorophenyl)(oxan-4-yl)methyl]-N,N-dimethyl-5-[4-(^2H3)methyl-1-methyl-1H-1,2,3-triazol-5-yl]-3,8,10-triazatricyclo[7.4.0.0^2,^7]trideca-1(13),2(7),3,5,9,11-hexaen-11-amine] | < 10 nM
Cc1noc(C)c1-c1cnc2c3ccc(S(C)(=O)=O)nc3n([C@H](c3ccccc3)C3CCOCC3)c2c1 [Example 144, 5-(Dimethyl-1,2-oxazol-4-yl)-11-methanesulfonyl-8-[(S)-oxan-4-yl(phenyl)methyl]-3,8,10-triazatricyclo[7.4.0.0^2,^7]trideca-1(13),2(7),3,5,9,11-hexaene] | < 10 nM
[2H]C([2H])([2H])c1nnn(C)c1-c1cnc2c3cnc(C(C)(C)O)cc3n([C@H](c3ccccc3F)C3CCOCC3)c2c1 [Example 332] | < 10 nM
[2H]C([2H])([2H])c1nnn(C)c1-c1cnc2c3c(OC)nc(N(C)CCNC)cc3n([C@H](c3ncccc3F)C3CCOCC3)c2c1 [Example 313, 8-[(S)-(3-Fluoropyridin-2-yl)(oxan-4-yl)methyl]-13-methoxy-N-methyl-5-[4-(^2H3)methyl-1-methyl-1H-1,2,3-triazol-5-yl]-N-[2-(methylamino)ethyl]-3,8,12-triazatricyclo[7.4.0.0^2,^7]trideca-1(9),2(7),3,5,10,12-hexaen-11-amine] | < 1500 nM
